According to PMC9962224, “Novel Inhibitors of Acetyl- and Butyrylcholinesterase Derived from Benzohydrazides: Synthesis, Evaluation and Docking Study” (Pharmaceuticals, 2023):
Where two headings read alike, the source gives them in different places.

Key:
[1] = target: T1, AChE (obtained from electric eel; EeAChE) (Electrophorus electricus, UniProt O42275); experiment: biochemical; assay type: biochemical; settings: for Selectivity BChE/AChE: SI = ratio of IC50 for BChE/IC50 for AChE, above 1 = stronger inhibition of AChE; for IC50: electric eel AChE, mean ± SD from three independent experiments
T1 construct: AChE (obtained from electric eel); purchased Merck (Prague, Czech Republic); host or cells: electric eel (natural source)
T1 sequence (O42275 24-633): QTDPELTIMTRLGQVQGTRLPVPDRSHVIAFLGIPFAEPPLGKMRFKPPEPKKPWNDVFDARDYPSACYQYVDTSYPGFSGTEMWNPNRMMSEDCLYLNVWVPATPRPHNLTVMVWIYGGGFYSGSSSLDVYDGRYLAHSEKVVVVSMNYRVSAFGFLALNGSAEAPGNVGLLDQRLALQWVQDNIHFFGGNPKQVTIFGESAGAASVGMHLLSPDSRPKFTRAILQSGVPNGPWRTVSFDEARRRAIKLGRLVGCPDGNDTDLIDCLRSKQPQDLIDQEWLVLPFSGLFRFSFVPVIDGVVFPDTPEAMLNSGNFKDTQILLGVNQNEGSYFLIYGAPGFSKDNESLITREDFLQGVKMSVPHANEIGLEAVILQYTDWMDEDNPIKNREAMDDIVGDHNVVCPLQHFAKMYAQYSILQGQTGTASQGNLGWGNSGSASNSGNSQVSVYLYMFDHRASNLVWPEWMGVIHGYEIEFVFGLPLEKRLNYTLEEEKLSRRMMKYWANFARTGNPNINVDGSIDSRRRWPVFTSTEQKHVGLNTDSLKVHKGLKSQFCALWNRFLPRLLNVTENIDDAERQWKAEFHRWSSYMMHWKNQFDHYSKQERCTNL
Text: (§1) Hydrazinecarboxamides 1–3 were examined in vitro for their potential to inhibit the function of AChE (obtained from electric eel) and BChE from equine serum using Ellman’s spectrophotometric method (Table 2). The activities are expressed as IC50 values, i.e., concentrations leading to 50% inhibition of enzymatic activity. Based on the IC50 values for AChE and BChE, we calculated selectivity indexes (SI) that quantified the selectivity for each cholinesterase. SI is the ratio of IC50 for BChE/IC50 for AChE.
(§2) The enzyme activity in the final reaction mixture (2000 µL) was 0.2 U/mL, the concentration of ATCh (or BTCh) was 40 µM, and the concentration of DTNB was 100 µM for all reactions. The investigated derivatives were dissolved in DMSO and then diluted with demineralized water (conductivity 3 μS, equipment supplier BKG Water Treatment, Hradec Králové, Czech Republic) to a concentration of 1000 µM. Five different inhibitor concentrations were used for all tested compounds in the final reaction mixture. The final concentration of DMSO was 0.2%. All experiments were performed in triplicate. The average values of the reaction rate (v0-uninhibited reaction, vi-inhibited reaction) were used to construct the dependence of v0/vi on the concentration of inhibitors. IC50 values were calculated from obtained regression curve equations.
(§3) Acetylcholinesterase originating from electric eels (Electrophorus electricus L.; EeAChE) and butyrylcholinesterase obtained from equine serum (EqBChE) were used.

[2] = target: T2, BChE from equine serum (EqBChE) (Equus caballus, UniProt P81908); experiment: biochemical; assay type: biochemical; settings: equine serum BChE; mean ± SD from three independent experiments
T2 construct: BChE from equine serum; purchased Merck (Prague, Czech Republic); host or cells: equine serum (natural source)
T2 sequence (P81908 whole entry): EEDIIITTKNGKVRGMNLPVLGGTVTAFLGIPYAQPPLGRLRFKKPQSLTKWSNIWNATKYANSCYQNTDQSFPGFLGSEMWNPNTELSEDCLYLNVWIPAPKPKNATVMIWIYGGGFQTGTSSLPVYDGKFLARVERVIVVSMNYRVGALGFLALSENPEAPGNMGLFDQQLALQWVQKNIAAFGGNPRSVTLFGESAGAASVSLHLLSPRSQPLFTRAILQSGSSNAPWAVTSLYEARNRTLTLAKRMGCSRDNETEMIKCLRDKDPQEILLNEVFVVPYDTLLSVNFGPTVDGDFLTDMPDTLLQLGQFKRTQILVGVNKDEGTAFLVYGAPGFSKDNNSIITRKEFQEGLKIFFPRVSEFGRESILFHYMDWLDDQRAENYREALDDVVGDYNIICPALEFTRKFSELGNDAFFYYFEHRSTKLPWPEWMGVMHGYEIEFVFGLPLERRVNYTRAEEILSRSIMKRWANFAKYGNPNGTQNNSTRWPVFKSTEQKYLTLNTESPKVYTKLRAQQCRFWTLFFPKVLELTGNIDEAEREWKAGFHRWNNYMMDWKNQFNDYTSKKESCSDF
Text: as §1, §2, §3

[3] = target: T2, BChE from equine serum (EqBChE); settings: parent N-alkyl-2-[4-(trifluoromethyl)benzoyl]hydrazine-1-carboxamides; cited from earlier work

Row | SMILES | Selectivity BChE/AChE [1] | IC50 [1] [µM] | IC50 [2] [µM] | IC50 [3] [µM]
1 | CCCCCCCCCCCCCNC(=O)NNC(=O)c1ccccc1[N+](=O)[O-] [2h, 2-(2-Nitrobenzoyl)-N-tridecylhydrazine-1-carboxamide] | >9.1 | 54.9 ± 1.08 | > 500 | –
2 | CNC(=O)NNC(=O)c1cccc(Br)c1 [2i, 2-(3-Bromobenzoyl)-N-methylhydrazine-1-carboxamide] | 6.8 | 51.9 ± 2 | 354 ± 8.79 | –
3 | CCCCCCCCCCCCCNC(=O)NNC(=O)c1cccc(Br)c1 [2j, 2-(3-Bromobenzoyl)-N-tridecylhydrazine-1-carboxamide] | >11.3 | 44.34 ± 0.1 | > 500 | –
4 | CNC(=O)NNC(=O)c1ccccc1Br [2k, 2-(2-Bromobenzoyl)-N-methylhydrazine-1-carboxamide] | >8.4 | 59.4 ± 1.83 | > 500 | –
5 | CCCCCCCCCCCCCNC(=O)NNC(=O)c1ccccc1Br [2l, 2-(2-Bromobenzoyl)-N-tridecylhydrazine-1-carboxamide] | >9.3 | 53.99 ± 0.44 | > 500 | –
6 | CNC(=O)NNC(=O)Cc1ccc(C(F)(F)F)cc1 [3a, N-Methyl-2-{2-[4-(trifluoromethyl)phenyl]acetyl}hydrazine-1-carboxamide] | 1.9 | 68.51 ± 0.25 | 131 ± 9.7 | –
7 | CCCCCCCCCCCCCNC(=O)NNC(=O)Cc1ccc(C(F)(F)F)cc1 [3b, N-Tridecyl-2-{2-[4-(trifluoromethyl)phenyl]acetyl}hydrazine-1-carboxamide] | 3.6 | 81.69 ± 0.45 | 292.9 ± 1.72 | –
8 | CNC(=O)NNS(=O)(=O)c1ccc(C(F)(F)F)cc1 [3c, N-Methyl-2-{[4-(trifluoromethyl)phenyl]sulfonyl}hydrazine-1-carboxamide] | – | 71.1 ± 0.94 | 425 ± 13.2 | –
9 | CCCCCCCCCCCCCNC(=O)NNS(=O)(=O)c1ccc(C(F)(F)F)cc1 [3d, N-Tridecyl-2-{[4-(trifluoromethyl)phenyl]sulfonyl}hydrazine-1-carboxamide] | > 8.4 | 58.8 ± 0.96 | 339 ± 11.6 | –
10 | CCCCCCCCCCCCCNC(=O)NNC(=O)c1ccc(C(F)(F)F)cc1 [P2] | – | – | – | 277 ± 10.3
